Experimental findings from US20240307294A1, “Topical Composition and Carrier for Administration of Pharmaceutically or Cosmetically Active Ingredients” (EMOLLIVET AB, priority 2013, published 2024) are described below.

A short description of this series: Carrier dissolution capacity (admixing controlled amounts of active agent). The format is physicochemical. Here is the method: The dissolution capacity of different carriers was tested by admixing controlled amounts of active agent.
[1] abbreviates: carrier Lipoid S100 0.0 / Urea 2.0 / Ethanol 98.0 % w/w.
Setting [2] is: carrier Lipoid S100 5.0 / Urea 2.0 / Ethanol 93.0 % w/w.
Setting [3] is: carrier Lipoid S100 10.0 / Urea 2.0 / Ethanol 88.0 % w/w.
[4] abbreviates: carrier Lipoid S100 20.0 / Urea 2.0 / Ethanol 78.0 % w/w.
Where [5] appears, read: carrier Lipoid S100 30.0 / Urea 2.0 / Ethanol 68.0 % w/w.

Regarding `C[C@]12CCC(=O)C=C1CC[C@@H]1[C@@H]2[C@@H](O)C[C@@]2(C)[C@H]1CC[C@]2(O)C(=O)CO` [Hydrocortisone], the Highest complete dissolution is given as 2.09 % w/w under setting [1]; 2.22 % w/w under setting [2]; 2.48 % w/w under setting [3]; 2.82 % w/w under setting [4]; 3.19 % w/w under setting [5]; 2.89 % w/w (carrier Lipoid S100 49.5 / Urea 1.0 / Ethanol 49.5 % w/w). Besides, the Lowest incomplete dissolution by setting is: under setting [1], 2.25 % w/w; (carrier Lipoid S100 5.0 / Urea 1.0 / Ethanol 94.0 % w/w) 2.28 % w/w; under setting [2], 2.37 % w/w; under setting [3], 2.83 % w/w; under setting [4], 3.22 % w/w; under setting [5], 3.50 % w/w.
Turning to Calcium pantothenate, the Highest complete dissolution was determined as 0.27 % w/w under setting [1]; 0.41 % w/w (carrier Lipoid S100 3.4 / Urea 2.0 / Ethanol 94.7 % w/w); 0.50 % w/w under setting [2]; 0.98 % w/w under setting [3]; 1.81 % w/w under setting [4]; 3.17 % w/w under setting [5]. For the same compound, under setting [1], the Lowest incomplete dissolution was 0.40 % w/w.
